Experimental data from the supplement of paper PMC11451515.

System: NOMO1
Assay: cell viability relative to DMSO control; higher = less cytotoxic
Conditions: 48 h
Outline: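 Before seeding, each leukemia line was adapted for at least four passages in each medium. NOMO1 or SEM cells (500 cells/well) and P12-Ichikawa cells (1000 cells/well) went into 1536-well plates at 5 μl, then received library compounds in DMSO by pin dosing across 11 threefold concentrations, 47 μM to 0.79 nM. Readout was CellTiter-Glo One luminescence after 48 h at 37°C, and viability is given as a per-plate percentage of DMSO wells, with cell-free wells as background.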

[1] = HPLM + 10% dialyzed FBS, 0.000781 µM
[2] = HPLM + 10% dialyzed FBS, 0.00234 µM
[3] = HPLM + 10% dialyzed FBS, 0.00702 µM
[4] = HPLM + 10% dialyzed FBS, 0.0211 µM
[5] = HPLM + 10% dialyzed FBS, 0.0632 µM
[6] = HPLM + 10% dialyzed FBS, 0.19 µM
[7] = HPLM + 10% dialyzed FBS, 0.569 µM
[8] = HPLM + 10% dialyzed FBS, 1.71 µM
[9] = HPLM + 10% dialyzed FBS, 5.12 µM
[10] = HPLM + 10% dialyzed FBS, 15.4 µM
[11] = HPLM + 10% dialyzed FBS, 46.1 µM
[12] = RPMI 5 mM glucose + 10% FBS, 0.000781 µM
[13] = RPMI 5 mM glucose + 10% FBS, 0.00234 µM
[14] = RPMI 5 mM glucose + 10% FBS, 0.00702 µM
[15] = RPMI 5 mM glucose + 10% FBS, 0.0211 µM
[16] = RPMI 5 mM glucose + 10% FBS, 0.0632 µM
[17] = RPMI 5 mM glucose + 10% FBS, 0.19 µM
[18] = RPMI 5 mM glucose + 10% FBS, 0.569 µM
[19] = RPMI 5 mM glucose + 10% FBS, 1.71 µM
[20] = RPMI 5 mM glucose + 10% FBS, 5.12 µM
[21] = RPMI 5 mM glucose + 10% FBS, 15.4 µM
[22] = RPMI 5 mM glucose + 10% FBS, 46.1 µM
[23] = RPMI 5 mM glucose + 10% dialyzed FBS, 0.000781 µM
[24] = RPMI 5 mM glucose + 10% dialyzed FBS, 0.00234 µM
[25] = RPMI 5 mM glucose + 10% dialyzed FBS, 0.00702 µM
[26] = RPMI 5 mM glucose + 10% dialyzed FBS, 0.0211 µM
[27] = RPMI 5 mM glucose + 10% dialyzed FBS, 0.0632 µM
[28] = RPMI 5 mM glucose + 10% dialyzed FBS, 0.19 µM
[29] = RPMI 5 mM glucose + 10% dialyzed FBS, 0.569 µM
[30] = RPMI 5 mM glucose + 10% dialyzed FBS, 1.71 µM
[31] = RPMI 5 mM glucose + 10% dialyzed FBS, 5.12 µM
[32] = RPMI 5 mM glucose + 10% dialyzed FBS, 15.4 µM
[33] = RPMI 5 mM glucose + 10% dialyzed FBS, 46.1 µM

Compound | cell viability [1] [%] | cell viability [2] [%] | cell viability [3] [%] | cell viability [4] [%] | cell viability [5] [%] | cell viability [6] [%] | cell viability [7] [%] | cell viability [8] [%] | cell viability [9] [%] | cell viability [10] [%] | cell viability [11] [%] | cell viability [12] [%] | cell viability [13] [%] | cell viability [14] [%] | cell viability [15] [%] | cell viability [16] [%] | cell viability [17] [%] | cell viability [18] [%] | cell viability [19] [%] | cell viability [20] [%] | cell viability [21] [%] | cell viability [22] [%] | cell viability [23] [%] | cell viability [24] [%] | cell viability [25] [%] | cell viability [26] [%] | cell viability [27] [%] | cell viability [28] [%] | cell viability [29] [%] | cell viability [30] [%] | cell viability [31] [%] | cell viability [32] [%] | cell viability [33] [%]
Cc1cc(Cl)ccc1OCCCC(=O)NO | 106 | 117 | 107 | 94.8 | 110 | 122 | 117 | 112 | 103 | 67 | 33.5 | 93.5 | 112 | 93.2 | 112 | 113 | 96.9 | 106 | 107 | 94 | 52.3 | 15.9 | 105 | 121 | 101 | 114 | 99.5 | 104 | 119 | 114 | 117 | 73.4 | 31
CC(C)NCC(O)c1ccc(NS(C)(=O)=O)cc1 (stereo not drawn) | 110 | 114 | 110 | 120 | 126 | 119 | 101 | 113 | 109 | 102 | 111 | 90.5 | 91.9 | 104 | 86.2 | 90.7 | 98.6 | 89.4 | 89 | 94.1 | 104 | 94.2 | 87.9 | 103 | 110 | 102 | 105 | 124 | 102 | 94.1 | 102 | 98.1 | 117
OC1=CC=C(C=C1)\C2=C\C(=O)C3=C(O2)C=C(O)C=C3O | 102 | 111 | 104 | 107 | 103 | 126 | 89.2 | 107 | 98.1 | 84.1 | 57.2 | 108 | 112 | 108 | 108 | 105 | 105 | 97.9 | 96 | 107 | 88.9 | 53.6 | 108 | 101 | 114 | 104 | 104 | 102 | 116 | 99.3 | 97.8 | 80 | 54.6
COC1(C[S+]([O-])c2ccccc2)CCN(CCc2c[nH]c3ccc(F)cc23)CC1 (stereo not drawn) | – | – | – | – | – | – | – | – | – | – | – | 107 | 113 | 106 | 106 | 117 | 117 | 116 | 112 | 113 | 103 | 96.2 | 111 | 99.8 | 115 | 102 | 112 | 111 | 110 | 99.8 | 98.3 | 103 | 90.3
N\C1=N\C2=C(N=C[N]2COC(CO)CO)C(=O)N1 | 88.7 | 110 | 116 | 114 | 131 | 120 | 133 | 109 | 110 | 92.2 | 5.43 | 110 | 119 | 114 | 118 | 103 | 107 | 121 | 110 | 116 | 101 | 4.52 | 99.5 | 112 | 99.5 | 102 | 122 | 117 | 117 | 112 | 99.8 | 95.5 | 3.67
COc1ccc(Nc2cc(-c3cnc(N)nc3)nc(N3CCOCC3)n2)cn1 | 105 | 105 | 84.5 | 97.2 | 83.3 | 87 | 76.6 | 79.9 | 54.7 | 46.8 | 39.6 | 82.6 | 90.2 | 88.2 | 84.4 | 83.4 | 88 | 78.4 | 84.8 | 60.5 | 65.4 | 52.7 | 86.8 | 91.8 | 85.3 | 88 | 91.6 | 76.8 | 71.3 | 75.1 | 56.4 | 56.8 | 44.5
CN(C)CCCNC(=O)c1ccc(-c2cc(O)c3ncccc3c2)cc1 | 113 | 110 | 109 | 107 | 105 | 85.9 | 117 | 98.8 | 114 | 86.7 | 60.1 | 89.1 | 89.5 | 96.2 | 99.5 | 103 | 84 | 86.1 | 87.7 | 97.2 | 85.9 | 82.4 | 96.3 | 94.6 | 112 | 98.1 | 102 | 112 | 94.2 | 101 | 106 | 91.1 | 62.8
COC(=O)[C@@H](N)CCCNC(=N)N[N+](=O)[O-] | 92.9 | 97.2 | 105 | 88 | 103 | 118 | 99.1 | 96.7 | 104 | 93.9 | 103 | 90 | 85.6 | 96.3 | 88.9 | 86.9 | 86.3 | 92.4 | 88.1 | 92.6 | 93.3 | 102 | 76.9 | 96.3 | 93.8 | 95.7 | 97.4 | 103 | 97.9 | 93.4 | 94.2 | 101 | 105
